Measured values as given in patent publication US5776489A, “Controlled release carbonic anhydrase inhibitor containing pharmaceutical compositions from spherical granules in capsule oral dosage unit form” (priority 1992, dated 1998).
In brackets after ≈: the same amount, converted by molar mass.

What was measured:
[1] = pH 1.2
[2] = cited from earlier work

## CC(=O)/N=c1/sc(S(N)(=O)=O)nn1C [methazolamide]
[1]
  degradation in gastric fluid: degradation
  solubility in gastric fluid: poor solubility
[2]; pH 7.2 phosphate buffer
  solubility: 3400 µg/mL (≈ 14.4 mM)
[2]; water, 25° C.
  aqueous solubility: 1500 µg/mL (≈ 6.35 mM)
